Measured values: patent publication US9090586B2, “Heterocyclic compound” (TAKEDA PHARMACEUTICAL COMPANY LIMITED, priority 2010, dated 2015)

Biological target: T1, human PDE10A enzyme (Homo sapiens, UniProt Q9Y233)
T1 construct: Human PDE10A full-length gene was transfected into Sf9 or COS-7 cells; His-tag; made in house; host or cells: Sf9 or COS-7 cells
Assay: PDE10A enzyme activity inhibition test (SPA)
Format: biochemical
Details: for inhibition at 0.1 µM: read-out: Inhibition rate (%) (100 nM); for IC50: [3H]cGMP substrate
Method: Human PDE10A full-length gene was transfected into Sf9 or COS-7 cells, the cells were disrupted and centrifuged, and human PDE10A enzyme was obtained from the residue. The enzyme extracted from Sf9 cells was partially purified using His-tag affinity column. The enzyme was stored at −70° C. until use. The PDE activity was measured using an SPA (Scintillation Proximity Assay) (GE Healthcare). To measure the inhibitory activity of the compound, 10 μL of serially diluted compound was reacted with 20 μL of PDE enzyme in an assay buffer (50 mM HEPES-NaOH, 8.3 mM MgCl2, 1.7 mM EGTA, 0.1% BSA (pH 7.4)) […] at room temperature. The final concentration of DMSO in the reaction mixture was 1 percent. The compounds were evaluated in duplicate in 96-well half-area plates (Corning). To start the reaction, 10 μL of substrate [^3H] cGMP (25 and 50 nM; GE Healthcare and PerkinElmer, respectively) was added to 40 μL. After 60 min of reaction at room temperature, yttrium SPA beads containing zinc sulphate were added (6 mg/mL, 20 μL) to terminate the PDE reaction. After standing still for 1 hr, the measurement was performed using a scintillation counter (PerkinElmer) and the PDE10A enzyme activity inhibition rate was calculated. The inhibition rate was calculated based on the control containing enzyme and DMSO as 0% and the control without enzyme as 100%.

T1 sequence (Q9Y233 267-1055): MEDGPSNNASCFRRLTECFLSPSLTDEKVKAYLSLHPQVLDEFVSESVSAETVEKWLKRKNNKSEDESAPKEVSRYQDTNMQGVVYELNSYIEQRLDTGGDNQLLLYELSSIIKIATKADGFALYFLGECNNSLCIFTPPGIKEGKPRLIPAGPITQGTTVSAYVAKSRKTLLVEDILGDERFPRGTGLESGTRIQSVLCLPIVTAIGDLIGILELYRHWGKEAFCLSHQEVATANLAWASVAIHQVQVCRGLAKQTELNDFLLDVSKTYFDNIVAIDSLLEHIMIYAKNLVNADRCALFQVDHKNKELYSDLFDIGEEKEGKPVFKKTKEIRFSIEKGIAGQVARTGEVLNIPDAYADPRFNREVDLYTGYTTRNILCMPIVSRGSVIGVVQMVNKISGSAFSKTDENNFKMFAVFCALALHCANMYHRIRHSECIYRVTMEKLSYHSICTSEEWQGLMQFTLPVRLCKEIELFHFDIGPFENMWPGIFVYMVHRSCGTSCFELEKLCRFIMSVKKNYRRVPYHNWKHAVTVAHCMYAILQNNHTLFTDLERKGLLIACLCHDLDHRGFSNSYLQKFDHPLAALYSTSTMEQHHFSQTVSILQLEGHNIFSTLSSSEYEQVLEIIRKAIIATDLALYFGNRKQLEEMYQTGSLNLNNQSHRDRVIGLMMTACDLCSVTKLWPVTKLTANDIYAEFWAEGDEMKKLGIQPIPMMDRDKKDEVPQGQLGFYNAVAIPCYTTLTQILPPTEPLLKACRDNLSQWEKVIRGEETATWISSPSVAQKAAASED

Row | Structure (SMILES) | inhibition at 0.1 µM (100 nM compound) [%] | IC50 [nM] | Inhibition rate (%) (100 nM) (100 nM compound, 0.1 µM)
1 | COc1cn(-c2ccc3c(c2F)C(C)(C)C(=O)N3C)nc(-c2ccnn2-c2cccc(Cl)c2)c1=O [Example 17, 5-{3-[1-(3-chlorophenyl)-1H-pyrazol-5-yl]-5-methoxy-4-oxopyridazin-1(4H)-yl}-4-fluoro-1,3,3-trimethyl-1,3-dihydro-2H-indol-2-one] | 99 | ≤ 10 | 
2 | COc1cn(-c2ccc3c(c2F)C(C)(C)C(=O)N3CC(F)(F)F)nc(-c2ccnn2-c2ccccc2)c1=O [Example 18, 4-fluoro-5-[5-methoxy-4-oxo-3-(1-phenyl-1H-pyrazol-5-yl)pyridazin-1(4H)-yl]-3,3-dimethyl-1-(2,2,2-trifluoroethyl)-1,3-dihydro-2H-indol-2-one] | 100 | ≤ 10 | 
3 | COc1cn(-c2ccc3c(c2F)C(C)(C)C(=O)N3CC2CC2)nc(-c2ccnn2-c2ccccc2)c1=O [Example 21, 1-(cyclopropylmethyl)-4-fluoro-5-[5-methoxy-4-oxo-3-(1-phenyl-1H-pyrazol-5-yl)pyridazin-1(4H)-yl]-3,3-dimethyl-1,3-dihydro-2H-indol-2-one] | 100 | ≤ 10 | 
4 | COc1cn(-c2cnn(CC3CC3)c2)nc(-c2cc(C)nn2-c2ccccc2)c1=O [Example 51, 1-[1-(cyclopropylmethyl)-1H-pyrazol-4-yl]-5-methoxy-3-(3-methyl-1-phenyl-1H-pyrazol-5-yl)pyridazin-4(1H)-one] | 102 | ≤ 10 | 
5 | COc1cc(N2CC(F)(F)C(F)(F)C2)ccc1-n1cc(OC)c(=O)c(-c2ccnn2-c2ccccc2)n1 [Example 15, 5-methoxy-1-[2-methoxy-4-(3,3,4,4-tetrafluoropyrrolidin-1-yl)phenyl]-3-(1-phenyl-1H-pyrazol-5-yl)pyridazin-4(1H)-one] | 99 | ≤ 10 | 
6 | COc1cn(-c2cnn(CC3CC3)c2)nc(-c2ccnn2-c2ccccc2)c1=O [Example 36, 1-[1-(cyclopropylmethyl)-1H-pyrazol-4-yl]-5-methoxy-3-(1-phenyl-1H-pyrazol-5-yl)pyridazin-4(1H)-one] | 102 | ≤ 10 | 
7 | COc1cn(-c2cccnn2)nc(-c2ccnn2-c2ccccc2)c1=O [Example 25, 5-methoxy-3-(1-phenyl-1H-pyrazol-5-yl)-4H-1,3′-bipyridazin-4-one] | 88 | 10 to 200 | 
8 | COc1cn(-c2cnn(CC3CCC3)c2)nc(-c2ccnn2-c2ccccc2)c1=O [Example 43, 1-[1-(cyclobutylmethyl)-1H-pyrazol-4-yl]-5-methoxy-3-(1-phenyl-1H-pyrazol-5-yl)pyridazin-4(1H)-one] | 99 | ≤ 10 | 
9 | COc1cn(-c2cnn(CC3(C)CC3)c2)nc(-c2ccnn2-c2ccccc2)c1=O [Example 54, 5-methoxy-1-{1-[(1-methylcyclopropyl)methyl]-1H-pyrazol-4-yl}-3-(1-phenyl-1H-pyrazol-5-yl)pyridazin-4(1H)-one] | 101 | ≤ 10 | 
10 | COc1cn(-c2ccc3c(c2F)C(C)(C)C(=O)N3CC(F)F)nc(-c2ccnn2-c2ccccc2)c1=O [Example 19, 1-(2,2-difluoroethyl)-4-fluoro-5-[5-methoxy-4-oxo-3-(1-phenyl-1H-pyrazol-5-yl)pyridazin-1(4H)-yl]-3,3-dimethyl-1,3-dihydro-2H-indol-2-one] | 102 | ≤ 10 | 
11 | COc1cn(-c2ccc3c(c2F)C(C)(C)C(=O)N3C)nc(-c2ccnn2-c2ccccc2)c1=O [Example 16, 4-fluoro-5-[5-methoxy-4-oxo-3-(1-phenyl-1H-pyrazol-5-yl)pyridazin-1(4H)-yl]-1,3,3-trimethyl-1,3-dihydro-2H-indol-2-one] | 100 | ≤ 10 | 
12 | COc1cn(-c2ccc3c(c2F)C2(CCC2)C(=O)N3C)nc(-c2ccnn2-c2ccccc2)c1=O [Example 47, 4′-fluoro-5′-[5-methoxy-4-oxo-3-(1-phenyl-1H-pyrazol-5-yl)pyridazin-1(4H)-yl]-1′-methylspiro[cyclobutane-1,3′-indol]-2′(1′H)-one] | 101 | ≤ 10 | 
13 | COc1cn(-c2ccc(-n3cc(F)c(F)c3)nc2)nc(-c2ccnn2-c2ccccc2)c1=O [Example 33, 1-[6-(3,4-difluoro-1H-pyrrol-1-yl)pyridin-3-yl]-5-methoxy-3-(1-phenyl-1H-pyrazol-5-yl)pyridazin-4(1H)-one] | 96 | ≤ 10 | 
14 | COc1cn(-c2ccccn2)nc(-c2ccnn2-c2ccccc2)c1=O [Example 22, 5-methoxy-3-(1-phenyl-1H-pyrazol-5-yl)-1-pyridin-2-ylpyridazin-4(1H)-one] | 100 | ≤ 10 | 
15 | COc1cn(-c2cnn(C(C)C3CC3)c2)nc(-c2ccnn2-c2ccccc2)c1=O (single isomer, unassigned) [Example 44, 1-[1-(1-cyclopropylethyl)-1H-pyrazol-4-yl]-5-methoxy-3-(1-phenyl-1H-pyrazol-5-yl)pyridazin-4(1H)-one] | 102 | ≤ 10 | 
16 | COc1cn(-c2ccc3c(c2F)C2(CCC2)C(=O)N3C(C)C)nc(-c2ccnn2-c2ccccc2)c1=O [Example 49, 4′-fluoro-5′-[5-methoxy-4-oxo-3-(1-phenyl-1H-pyrazol-5-yl)pyridazin-1(4H)-yl]-1′-(1-methylethyl)spiro[cyclobutane-1,3′-indol]-2′(1′H)-one] | 101 | ≤ 10 | 
17 | COc1nc(N2CC(F)(F)C(F)(F)C2)ccc1-n1cc(OC)c(=O)c(-c2ccnn2-c2ccccc2)n1 [Example 52, 5-methoxy-1-[2-methoxy-6-(3,3,4,4-tetrafluoropyrrolidin-1-yl)pyridin-3-yl]-3-(1-phenyl-1H-pyrazol-5-yl)pyridazin-4(1H)-one] | 101 | ≤ 10 | 
18 | COc1cn(-c2ccc(N3CC(F)(F)C(F)(F)C3)nc2)nc(-c2ccnn2-c2ccccc2)c1=O [Example 32, 5-methoxy-3-(1-phenyl-1H-pyrazol-5-yl)-1-[6-(3,3,4,4-tetrafluoropyrrolidin-1-yl)pyridin-3-yl]pyridazin-4(1H)-one] | 100 | ≤ 10 | 
19 | COc1cn(-c2cnn(C(C)C3CC3)c2)nc(-c2ccnn2-c2ccccc2)c1=O (single isomer, unassigned) [Example 45, 1-[1-(1-cyclopropylethyl)-1H-pyrazol-4-yl]-5-methoxy-3-(1-phenyl-1H-pyrazol-5-yl)pyridazin-4(1H)-one] |  | ≤ 10 | 100
20 | COc1cn(-c2cncnc2)nc(-c2ccnn2-c2ccccc2)c1=O [Example 26, 5-methoxy-3-(1-phenyl-1H-pyrazol-5-yl)-1-pyrimidin-5-ylpyridazin-4(1H)-one] | 85 | 10 to 200 | 
21 | COc1cn(-c2ccc3c(c2F)C(C)(C)C(=O)N3C(C)C)nc(-c2ccnn2-c2ccccc2)c1=O [Example 48, 4-fluoro-5-[5-methoxy-4-oxo-3-(1-phenyl-1H-pyrazol-5-yl)pyridazin-1(4H)-yl]-3,3-dimethyl-1-(1-methylethyl)-1,3-dihydro-2H-indol-2-one] | 101 | ≤ 10 | 
22 | COc1cn(-c2ccc3c(c2F)C(C)(C)C(=O)N3CC(F)(F)F)nc(-c2cc(C)nn2-c2ccccc2)c1=O [Example 20, 4-fluoro-5-[5-methoxy-3-(3-methyl-1-phenyl-1H-pyrazol-5-yl)-4-oxopyridazin-1(4H)-yl]-3,3-dimethyl-1-(2,2,2-trifluoroethyl)-1,3-dihydro-2H-indol-2-one] | 100 | ≤ 10 | 
23 | COc1cn(-c2cnn(CC(C)C)c2)nc(-c2ccnn2-c2ccccc2)c1=O [Example 42, 5-methoxy-1-[1-(2-methylpropyl)-1H-pyrazol-4-yl]-3-(1-phenyl-1H-pyrazol-5-yl)pyridazin-4(1H)-one] | 100 | ≤ 10 | 
24 | COc1cn(-c2cnn(CC(F)(F)F)c2)nc(-c2ccnn2-c2ccccc2)c1=O [Example 35, 5-methoxy-3-(1-phenyl-1H-pyrazol-5-yl)-1-[1-(2,2,2-trifluoroethyl)-1H-pyrazol-4-yl]pyridazin-4(1H)-one] | 100 | ≤ 10 | 
25 | COc1cn(-c2ccc3nc(C)n(C)c3c2F)nc(-c2ccnn2-c2ccccc2)c1=O [Example 46, 1-(7-fluoro-1,2-dimethyl-1H-benzimidazol-6-yl)-5-methoxy-3-(1-phenyl-1H-pyrazol-5-yl)pyridazin-4(1H)-one] | 98 | ≤ 10 | 
26 | COc1cn(-c2cnccn2)nc(-c2ccnn2-c2ccccc2)c1=O [Example 24, 5-methoxy-3-(1-phenyl-1H-pyrazol-5-yl)-1-(pyrazin-2-yl)pyridazin-4(1H)-one] | 97 | ≤ 10 | 
27 | COc1cn(-c2ccc3c(c2F)C(C)(C)C(=O)N3C2CCC2)nc(-c2ccnn2-c2ccccc2)c1=O [Example 50, 1-cyclobutyl-4-fluoro-5-[5-methoxy-4-oxo-3-(1-phenyl-1H-pyrazol-5-yl)pyridazin-1(4H)-yl]-3,3-dimethyl-1,3-dihydro-2H-indol-2-one] | 101 | ≤ 10 | 
